# Experimental data as given in patent US20140235776A1, “AMINOALCOHOL COMPOUNDS AND THEIR USE AS ZERO OR LOW VOC ADDITIVES FOR PAINTS AND COATINGS” (ANGUS CHEMICAL COMPANY, priority 2011, published 2014).
# Like-named read-outs stand apart in the source and are kept apart here.
# What was measured:
# Assay type in all cases: physicochemical
# [1] = pKa of neutralizing amines
# [2] = VOC testing according to ASTM D6886-rev (gas chromatography); conditions: neutralizer in a finished paint formulation, GC conditions of Table 2
# Method: VOC properties are tested according to the ASTM D6886-rev method.
# [3] = Freeze-thaw cycles of paint samples, viscosity by Krebs Stormer Viscometer; conditions: for Viscosity after Freeze-Thaw cycles (KU), 2nd cycle / Viscosity after Freeze-Thaw cycles (KU), 3rd cycle / Viscosity after Freeze-Thaw cycles (KU), 4th cycle / Viscosity after Freeze-Thaw cycles (KU), 5th cycle / Viscosity after Freeze-Thaw cycles (KU), 1st cycle: additive 2 wt %; for Initial Viscosity (KU): additive 2 wt % post-add in paint of Table 8, before freeze-thaw; for Viscosity after Freeze-Thaw cycles (KU), 1st cycle: cycle = −18° C. 17 hours, 25° C. 7 hours; for freeze-thaw survival of paint sample (in words): added as post-add, 2 wt %
# Method: Preparation of paint formulations containing compounds of the invention: The paint formulations are prepared using F/T agent 1 and 2 as shown by structures below. The octanol water partition coefficients are calculated for these compounds using the method of Moriguchi et al., Chem. Pharm. Bull. 40(1), 127-130 (1992). The calculated octanol-water partition coefficients for F/T-1 and F/T-2 are −2.59, and −3.99, respectively. […] Paint samples are frozen at −18° C. for 17 hours and then thawed at 25° C. for 7 hours. This constitutes 1 complete freeze-thaw cycle. Viscosities are measured after each freeze-thaw cycle using a Krebs Stormer Viscometer from Sheen at room temperature. The viscosity is measured in Krebs unit (KU). The results of freeze-thaw cycles on paint samples that contain zero-VOC compounds of the invention as post-adds are listed in the Table 9. The post-add compounds are mixed at 2 wt % in the paint samples. The same paint formulation is used in preparing all the samples. The paint sample without any post-add is designated as “Blank.”
# The KU values below 150 as reported in Table 9 are considered acceptable, and all the values (other than that for the Blank) reported are considered very acceptable.
# [4] = High shear (ICI) viscosity of paint, ASTM D 4287; conditions: in P (unit assumed)
# Method: (§1) The pH of each formulation is measured with a digital pH meter with a glass combination pH probe. Krebs-units (KU) viscosity is measured with Brookfield model KU viscometer with digital display (ASTM D562), at 25° C. The high shear (“ICI”) viscosity is measured according to ASTM D 4287 using a Brookfield CAP 1000+ viscometer at a shear rate of 12,000 s^−1 at 900 rpm, with a 0.45° cone of radius 1.511 cm, and a sample temperature controlled at 25° C.
# [5] = pH of paint formulation (digital pH meter); conditions: for pH: Zero VOC Flat Formulation, vinyl acrylic latex; for pH, 1 day 25° C.: Zero VOC Semi Gloss Formulation, acrylic latex
# Method: pH, Low Shear and High Shear Viscosity.
# The pH of each formulation is measured with a digital pH meter with a glass combination pH probe. Krebs-units (KU) viscosity is measured with Brookfield model KU viscometer with digital display (ASTM D562), at 25° C.
# [6] = Krebs-units (KU) low shear viscosity of paint, ASTM D562
# Method: as §1
# [7] = read-out: pKa (first value, pK1)
# [8] = read-out: pKa (second value, pK2)
# [9] = Zero VOC Semi Gloss Formulation
Structure (SMILES),"pKa [1, 7]","pKa [1, 8]",VOC contributed by neutralizers [2],"Viscosity after Freeze-Thaw cycles (KU), 2nd cycle [3]","Viscosity after Freeze-Thaw cycles (KU), 3rd cycle [3]","Viscosity after Freeze-Thaw cycles (KU), 4th cycle [3]","Viscosity after Freeze-Thaw cycles (KU), 5th cycle [3]",Initial Viscosity (KU) [3],"Viscosity after Freeze-Thaw cycles (KU), 1st cycle [3]",also measured
"OCC(O)CNCCN(CCNCC(O)CO)CC(O)CO (centres unmarked) [DETA Glyc, 3,3′-((((2,3-dihydroxypropyl)azanediyl)bis(ethane-2,1-diyl))bis(azanediyl))bis(propane-1,2-diol)]",8.9,4.6,0%^2,,,,,,,
"OCCOCCO [Diethylene Glycol, diethylene glycol, reference compound]",,,,105.1 KU,106.9 KU,100.6 KU,98 KU,91.0 KU,101.1 KU,
"CC(C)(N)CNCCOCCOCCNCC(C)(C)N [EDBDA bis-AMP, N1,N1′-((ethane-1,2-diylbis(oxy))bis(ethane-2,1-diyl))bis(2-methylpropane-1,2-diamine), reference compound]",9.7,5.8,0%^2,,,,,,,
"OCC(O)CNCCN(CCNCC(O)CO)CC(O)CO (centres unmarked) [F/T Agent 1, 3,3′-((((2,3-dihydroxypropyl)azanediyl)bis(ethane-2,1-diyl))bis(azanediyl))bis(propane-1,2-diol)]",,,,111.1 KU,112.7 KU,111.8 KU,109.5 KU,89.5 KU,108 KU,freeze-thaw survival of paint sample (in words) [3]: survive five freeze-thaw cycles
"OCC(O)CN(CCN(CC(O)CO)CC(O)CO)CCN(CC(O)CO)CC(O)CO (centres unmarked) [F/T Agent 2, 3,3′,3″,3′′′-((((2,3-dihydroxypropyl)azanediyl)bis(ethane-2,1-diyl))bis(azanetriyl))tetrakis(propane-1,2-diol)]",,,,113.1 KU,114 KU,121.7 KU,116.3 KU,88.2 KU,110.4 KU,freeze-thaw survival of paint sample (in words) [3]: survive five freeze-thaw cycles
"[Na+].[OH-] [NaOH, sodium hydroxide, reference compound]",,,,,,,,,,"ICI Viscosity, 1 day 25° C. ([4]; Zero VOC Flat Formulation): 1.184; ICI Viscosity, 1 day 25° C. [4, 9]: 1.059; pH [5]: 8.56; pH, 1 day 25° C. [5]: 9.47; KU Viscosity, 1 day 25° C. ([6]; Zero VOC Flat Formulation): 86 KU; KU Viscosity, 1 day 25° C. [6, 9]: 89.1 KU"
"CC(O)CO (centres unmarked) [Propylene Glycol, propylene glycol, reference compound]",,,,103.2 KU,115.1 KU,99.4 KU,98.2 KU,89.8 KU,101.3 KU,
"CC(O)CNCCN(CCNCCN(CCNCC(C)O)CC(C)O)CC(C)O (centres unmarked) [TEPA 4PO, 7,13-bis(2-hydroxypropyl)-4,7,10,13,16-pentaazanonadecane-2,18-diol]",8.7,4.8,0%^2,,,,,,,
"CC(O)CNCCNCCN(CCNCC(C)O)CC(C)O (centres unmarked) [TETA 3PO, 7-(2-hydroxypropyl)-4,7,10,13-tetraazahexadecane-2,15-diol]",,,,,,,,,,"ICI Viscosity, 1 day 25° C. ([4]; Zero VOC Flat Formulation): 1.29; ICI Viscosity, 1 day 25° C. [4, 9]: 1.018; pH [5]: 8.51; pH, 1 day 25° C. [5]: 9.46; KU Viscosity, 1 day 25° C. ([6]; Zero VOC Flat Formulation): 92.8 KU; KU Viscosity, 1 day 25° C. [6, 9]: 85.9 KU"
